Patent publication US12150940B2, “WASp-protecting small molecules, compositions, methods and uses thereof in the treatment of innate and acquired immune-related disorders or conditions” (BAR ILAN UNIVERSITY, priority 2016, dated 2024)

Test system: PBMCs
Experiment: Lymphocyte activation in PBMCs (CD69 and activated LFA-1, flow cytometry)
Type: cell-based, human
Details: PBMCs stimulated with PMA and Ionomycin, vs control
Method: Figures show 1×10^6 PBMC cells/ml stimulated with PMA and Ionomycin that were treated with DMSO or WASp-binding SMCs. After incubation, the cells were stained with PE-Cy5™-conjugated mouse anti-human CD69 and lymphocyte activation was measured by flow-cytometry as described in the Experimental procedures. Histograms of DMSO versus SMC #6 (FIG. 8A), SMC #30 (FIG. 8B), SMC #33 (FIG. 8C), and SMC #34 (FIG. 8D) are presented and represent three independent experiments.
After incubation, the cells were stained with anti-activated LFA-1 antibody (KIM127), followed by staining with Alexa488-Fluor goat anti-mouse IgG1 secondary antibody, and lymphocyte activation was measured by flow-cytometry as described in the Experimental procedures. Histogram of negative control versus SMC #6 is presented.
PBMCs or Jurkat cells (about 3×10^5 cells) were incubated for 4 h, at 37° C. with 50 ng/ml PMA and 250 ng/ml lonomycin, or 40 ng/ml PMA and 6 μM Ionomycin, respectively, or left untreated. After incubation, the cells were collected and stained with 1 μg/ml anti-active human LFA-1 antibody (purified from KIM127 hybridoma sup, ATCC Cat #: CRL-2838, Sigma) for 30 min in 37° C., followed by staining with Alexa488-Fluor goat anti-mouse IgG1 secondary antibody (Molecular Probes, Cat #: A-21121), 30 min on ice. Cells were then co-stained with PE-Cy5™-conjugated mouse anti-human CD69 (BD Pharmingen, Cat #: 555532) to measure lymphocyte activation.
Lymphocyte activation is a hallmark of a normal immune response. To test whether treatment with WASp-binding SMCs could upregulate lymphocyte activation, freshly-isolated PBMCs were incubated with SMCs or control (solvent only) and stimulated with PMA and lonomycin. The cells were then stained with two different antibodies, which recognize two lymphocyte activation markers, CD69 and an epitope exposed at the active conformation of the integrin LFA-1 (KIM127). Both were detected by flow-cytometry.

CC(=O)N[C@H]1C[C@@H](c2ccc3c(c2)nnn3C)O[C@@H](c2ccc(Cl)cc2)C1 [SMC #6, N-[(2R,4R,6S)-2-(4-chlorophenyl)-6-(1-methylbenzotriazol-5-yl)oxan-4-yl]acetamide]
lymphocyte activation (CD69, activated LFA-1): upregulation of lymphocyte activation

CC1CCCC(C)N1C(=O)CSc1nnc(COc2cccc3cccnc23)o1 (stereo not drawn) [SMC #34, 1-(2,6-dimethylpiperidin-1-yl)-2-[[5-(quinolin-8-yloxymethyl)-1,3,4-oxadiazol-2-yl]sulfanyl]ethanone]
lymphocyte activation (CD69, activated LFA-1): upregulation of lymphocyte activation

Cc1ccccc1N(CC(=O)NCc1ccccc1)C(=O)CCC(=O)Nc1nccs1 [SMC #33, N′-[2-(benzylamino)-2-oxoethyl]-N′-(2-methylphenyl)-N-(1,3-thiazol-2-yl)butanediamide]
lymphocyte activation (CD69, activated LFA-1): upregulation of lymphocyte activation
